Key:
Assay in all cases: DSF
Type in all cases: binding
STK4 = biological target: T1, STK4 (Homo sapiens, UniProt Q13043)
T1 construct: purchased in-house DSF panel (SGC Frankfurt)
T1 sequence (Q13043 30-281): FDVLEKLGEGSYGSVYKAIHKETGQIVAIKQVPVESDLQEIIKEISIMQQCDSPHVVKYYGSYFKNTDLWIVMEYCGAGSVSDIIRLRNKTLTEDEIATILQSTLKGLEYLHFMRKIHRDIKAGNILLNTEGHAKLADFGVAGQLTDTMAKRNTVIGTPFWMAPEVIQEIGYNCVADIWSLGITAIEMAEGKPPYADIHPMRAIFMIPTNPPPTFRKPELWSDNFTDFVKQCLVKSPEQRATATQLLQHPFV
Procedure: (§1) Measurements were performed in duplicates.

MAPK13 = biological target: T2, MAPK13 (Homo sapiens, UniProt O15264)
T2 construct: purchased in-house DSF panel (SGC Frankfurt)
T2 sequence (O15264 1-365): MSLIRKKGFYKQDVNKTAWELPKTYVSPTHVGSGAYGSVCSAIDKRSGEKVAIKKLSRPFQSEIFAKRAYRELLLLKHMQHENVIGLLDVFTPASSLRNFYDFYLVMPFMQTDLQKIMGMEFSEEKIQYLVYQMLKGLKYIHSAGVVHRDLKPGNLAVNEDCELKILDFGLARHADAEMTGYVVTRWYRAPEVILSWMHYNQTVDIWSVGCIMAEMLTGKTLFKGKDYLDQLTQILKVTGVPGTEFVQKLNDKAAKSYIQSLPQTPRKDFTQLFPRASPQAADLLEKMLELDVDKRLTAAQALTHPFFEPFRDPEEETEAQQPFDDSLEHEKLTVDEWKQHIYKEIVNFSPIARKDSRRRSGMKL
Procedure: as §1

BMP2K = biological target: T3, BMP2K (Homo sapiens, UniProt Q9NSY1)
T3 construct: purchased in-house DSF panel (SGC Frankfurt)
T3 sequence (Q9NSY1 38-345): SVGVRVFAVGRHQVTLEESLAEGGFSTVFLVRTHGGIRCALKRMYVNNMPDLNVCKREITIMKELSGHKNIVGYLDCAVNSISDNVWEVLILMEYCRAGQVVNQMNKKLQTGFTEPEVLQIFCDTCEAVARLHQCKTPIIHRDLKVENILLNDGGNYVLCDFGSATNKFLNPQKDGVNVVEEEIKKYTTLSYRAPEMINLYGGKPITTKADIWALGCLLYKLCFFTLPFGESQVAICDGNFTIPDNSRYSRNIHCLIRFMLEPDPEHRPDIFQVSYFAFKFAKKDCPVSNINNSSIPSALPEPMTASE
Procedure: as §1

DCAMKL1 = biological target: T4, DCAMKL1 (Homo sapiens, UniProt O15075)
T4 construct: purchased in-house DSF panel (SGC Frankfurt)
T4 sequence (O15075 390-647): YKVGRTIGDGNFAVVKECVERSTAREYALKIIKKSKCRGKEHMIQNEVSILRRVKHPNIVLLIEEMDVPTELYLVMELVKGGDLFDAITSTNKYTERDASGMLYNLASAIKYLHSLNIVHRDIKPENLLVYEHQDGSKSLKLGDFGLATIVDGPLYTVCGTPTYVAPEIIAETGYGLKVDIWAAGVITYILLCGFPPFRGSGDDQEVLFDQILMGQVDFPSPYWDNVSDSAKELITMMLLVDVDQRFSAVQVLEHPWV
Procedure: as §1

STK3 = biological target: T5, STK3 (Homo sapiens, UniProt Q13188)
T5 construct: purchased in-house DSF panel (SGC Frankfurt)
T5 sequence (Q13188 16-313): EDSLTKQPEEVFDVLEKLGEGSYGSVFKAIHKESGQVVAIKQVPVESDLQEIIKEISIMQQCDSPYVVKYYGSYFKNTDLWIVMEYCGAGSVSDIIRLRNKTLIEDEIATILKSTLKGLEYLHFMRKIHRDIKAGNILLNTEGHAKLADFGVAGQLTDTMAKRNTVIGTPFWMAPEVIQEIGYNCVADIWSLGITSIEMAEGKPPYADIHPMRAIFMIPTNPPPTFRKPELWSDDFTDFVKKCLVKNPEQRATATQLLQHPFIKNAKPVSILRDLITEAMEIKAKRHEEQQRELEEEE
Procedure: Recombinant protein kinase domains with a concentration of 2 μM were mixed with a 10 μM compound solution in DMSO, 20 mM HEPES, pH 7.5, and 500 mM NaCl. SYPRO Orange (5000×, Invitrogen) was added as a fluorescence probe (1 µl per mL). Subsequently, temperature-dependent protein unfolding profiles were measured, using the QuantStudio™ 5 realtime PCR machine (Thermo Fisher, Waltham, MA, USA). […] The temperature was raised with a step rate of 3 °C per minute. Data points were analyzed with the internal software (Thermal Shift SoftwareTM Version 1.4, Thermo Fisher) using the Boltzmann equation to determine the inflection point of the transition curve [56]. Differences in melting temperature are given as ΔTm values in °C. Measurements were performed in duplicates.

CASK = biological target: T6, CASK (Homo sapiens, UniProt O14936)
T6 construct: purchased in-house DSF panel (SGC Frankfurt)
T6 sequence (O14936 1-337): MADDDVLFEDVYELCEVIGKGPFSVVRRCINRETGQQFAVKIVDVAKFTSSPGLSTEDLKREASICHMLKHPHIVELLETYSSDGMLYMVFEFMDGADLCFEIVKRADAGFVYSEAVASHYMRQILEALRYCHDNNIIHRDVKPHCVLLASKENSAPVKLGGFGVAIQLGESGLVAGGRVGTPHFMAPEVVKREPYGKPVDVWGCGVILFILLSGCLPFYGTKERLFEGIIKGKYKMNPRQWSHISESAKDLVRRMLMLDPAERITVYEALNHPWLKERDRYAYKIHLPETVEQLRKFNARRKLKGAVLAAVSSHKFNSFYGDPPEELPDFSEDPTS
Procedure: (§2) Recombinant protein kinase domains with a concentration of 2 μM were mixed with a 10 μM compound solution in DMSO, 20 mM HEPES, pH 7.5, and 500 mM NaCl. SYPRO Orange (5000×, Invitrogen) was added as a fluorescence probe (1 µl per mL). Subsequently, temperature-dependent protein unfolding profiles were measured, using the QuantStudio™ 5 realtime PCR machine (Thermo Fisher, Waltham, MA, USA). […] The temperature was raised with a step rate of 3 °C per minute. Data points were analyzed with the internal software (Thermal Shift SoftwareTM Version 1.4, Thermo Fisher) using the Boltzmann equation to determine the inflection point of the transition curve. Differences in melting temperature are given as ΔTm values in °C. Measurements were performed in duplicates.

CAMK1G = biological target: T7, CAMK1G (Homo sapiens, UniProt Q96NX5)
T7 construct: purchased in-house DSF panel (SGC Frankfurt)
T7 sequence (Q96NX5 whole entry): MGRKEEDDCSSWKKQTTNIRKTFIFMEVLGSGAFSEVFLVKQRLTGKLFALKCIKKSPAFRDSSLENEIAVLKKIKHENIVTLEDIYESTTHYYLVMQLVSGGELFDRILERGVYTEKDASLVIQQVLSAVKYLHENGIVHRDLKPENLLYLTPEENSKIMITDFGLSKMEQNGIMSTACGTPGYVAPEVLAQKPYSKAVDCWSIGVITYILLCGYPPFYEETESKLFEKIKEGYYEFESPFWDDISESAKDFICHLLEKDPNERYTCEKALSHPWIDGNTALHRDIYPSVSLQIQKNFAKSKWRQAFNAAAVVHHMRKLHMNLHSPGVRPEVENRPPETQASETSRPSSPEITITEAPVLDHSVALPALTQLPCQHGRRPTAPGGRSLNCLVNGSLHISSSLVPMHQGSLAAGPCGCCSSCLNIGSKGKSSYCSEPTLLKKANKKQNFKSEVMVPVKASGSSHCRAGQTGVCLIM
Procedure: as §2

GAK = biological target: T8, GAK (Homo sapiens, UniProt O14976)
T8 construct: purchased in-house DSF panel (SGC Frankfurt)
T8 sequence (O14976 14-351): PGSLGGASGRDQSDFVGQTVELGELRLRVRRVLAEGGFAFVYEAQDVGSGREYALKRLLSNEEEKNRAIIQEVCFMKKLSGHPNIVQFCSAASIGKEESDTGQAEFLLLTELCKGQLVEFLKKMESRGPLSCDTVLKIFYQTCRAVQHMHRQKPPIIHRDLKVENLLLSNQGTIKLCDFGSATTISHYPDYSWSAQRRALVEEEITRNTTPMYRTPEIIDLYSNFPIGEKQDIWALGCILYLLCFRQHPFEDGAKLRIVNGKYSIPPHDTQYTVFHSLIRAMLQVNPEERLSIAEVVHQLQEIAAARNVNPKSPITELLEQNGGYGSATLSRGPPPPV
Procedure: as §2

PAK4 = biological target: T9, PAK4 (Homo sapiens, UniProt O96013)
T9 construct: purchased in-house DSF panel (SGC Frankfurt)
T9 sequence (O96013 291-591): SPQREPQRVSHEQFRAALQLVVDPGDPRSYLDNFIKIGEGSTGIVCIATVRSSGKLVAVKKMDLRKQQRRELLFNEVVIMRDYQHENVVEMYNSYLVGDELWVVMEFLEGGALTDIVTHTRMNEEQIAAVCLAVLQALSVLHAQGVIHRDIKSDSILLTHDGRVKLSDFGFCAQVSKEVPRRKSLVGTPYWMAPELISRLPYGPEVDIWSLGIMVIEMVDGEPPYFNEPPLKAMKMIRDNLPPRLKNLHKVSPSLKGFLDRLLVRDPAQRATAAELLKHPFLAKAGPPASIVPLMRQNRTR
Procedure: as §2

FES = biological target: T10, FES (Homo sapiens, UniProt P07332)
T10 construct: purchased in-house DSF panel (SGC Frankfurt)
T10 sequence (P07332 whole entry): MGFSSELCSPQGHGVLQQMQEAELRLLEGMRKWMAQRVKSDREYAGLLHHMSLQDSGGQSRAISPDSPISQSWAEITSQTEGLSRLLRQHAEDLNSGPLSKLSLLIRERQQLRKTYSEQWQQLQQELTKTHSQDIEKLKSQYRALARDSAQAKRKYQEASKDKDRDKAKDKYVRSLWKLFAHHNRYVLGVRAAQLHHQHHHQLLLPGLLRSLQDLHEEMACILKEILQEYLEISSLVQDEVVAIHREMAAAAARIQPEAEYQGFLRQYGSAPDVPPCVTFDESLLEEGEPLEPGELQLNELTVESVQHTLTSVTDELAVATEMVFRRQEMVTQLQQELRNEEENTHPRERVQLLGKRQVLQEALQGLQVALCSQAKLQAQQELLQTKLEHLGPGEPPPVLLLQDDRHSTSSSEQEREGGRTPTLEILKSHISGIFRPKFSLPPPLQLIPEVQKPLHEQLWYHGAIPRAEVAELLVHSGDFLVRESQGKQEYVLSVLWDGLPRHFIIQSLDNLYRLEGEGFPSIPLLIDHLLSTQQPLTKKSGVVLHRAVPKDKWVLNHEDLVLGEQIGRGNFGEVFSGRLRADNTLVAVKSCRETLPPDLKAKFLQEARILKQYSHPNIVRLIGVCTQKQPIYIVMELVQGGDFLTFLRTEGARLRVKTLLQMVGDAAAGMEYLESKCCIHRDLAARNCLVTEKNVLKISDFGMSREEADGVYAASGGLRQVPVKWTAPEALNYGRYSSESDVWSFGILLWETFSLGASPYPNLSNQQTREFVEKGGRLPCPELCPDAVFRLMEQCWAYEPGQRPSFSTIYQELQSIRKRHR
Procedure: as §2

ABL1 = biological target: T11, ABL1 (Homo sapiens, UniProt P00519)
T11 construct: purchased in-house DSF panel (SGC Frankfurt)
T11 sequence (P00519 229-500): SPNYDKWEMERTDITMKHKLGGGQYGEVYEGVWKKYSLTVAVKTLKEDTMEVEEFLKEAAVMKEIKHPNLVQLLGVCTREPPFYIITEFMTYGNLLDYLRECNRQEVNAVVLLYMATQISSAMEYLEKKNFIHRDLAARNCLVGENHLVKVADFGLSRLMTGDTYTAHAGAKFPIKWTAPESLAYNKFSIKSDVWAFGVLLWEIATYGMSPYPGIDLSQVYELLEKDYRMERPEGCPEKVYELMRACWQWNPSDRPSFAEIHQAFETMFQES
Procedure: as §2

Structure (SMILES) | ΔTm STK4 (STK4) [°C] | ΔTm MAPK13 (MAPK13) [°C] | ΔTm BMP2K (BMP2K) [°C] | ΔTm DCAMKL1 (DCAMKL1) [°C] | ΔTm STK3 (STK3) [°C] | ΔTm CASK (CASK) [°C] | ΔTm CAMK1G (CAMK1G) [°C] | ΔTm GAK (GAK) [°C] | ΔTm PAK4 (PAK4) [°C] | ΔTm FES (FES) [°C] | ΔTm ABL1 (ABL1) [°C]
CC(C)OC(=O)c1cc(Nc2ccnc(NCc3ccc(NC(=O)OC(C)(C)C)cc3)n2)n[nH]1 [42d, isopropyl 3-((2-((4-((tert-butoxycarbonyl)amino)benzyl)amino)pyrimidin-4-yl)amino)-1H-pyrazole-5-carboxylate] | -0.5 | 1.0 | 1.4 | -2.4 | -1.0 | 0.4 | -0.2 | -0.9 | -0.2 | 0.1 | 1.0
N#CCc1ccc(Nc2nccc(Nc3cc(C4CC4)[nH]n3)n2)cc1 [compound 1, reference compound] | 9.6 | 8.0 | 18.8 | 8.9 | 11.6 | 2.0 | 5.5 | 8.0 | 7.7 | 4.5 | 8.7
COC(=O)c1cc(Nc2ccnc(NCCOCCNC(=O)OC(C)(C)C)n2)[nH]n1 [21d, methyl 5-((2-((2-(2-((tert-butoxycarbonyl)amino)ethoxy)ethyl)amino)pyrimidin-4-yl)amino)-1H-pyrazole-3-carboxylate] | 1.6 | 0.5 | 5.7 | 1.5 | 1.6 | 0.4 | 0.4 | 2.1 | 1.0 | 1.5 | 1.2
CC(C)(C)OC(=O)Nc1ccc(CNc2nccc(Nc3cc(C(=O)OC(C)(C)C)[nH]n3)n2)cc1 [43d, tert-butyl 3-((2-((4-((tert-butoxycarbonyl)amino)benzyl)amino)pyrimidin-4-yl)amino)-1H-pyrazole-5-carboxylate] | -0.2 | 1.3 | 1.7 | -2.1 | 0.3 | 0.4 | -0.7 | -4.1 | -0.9 | 1.1 | 1.6
COC(=O)c1cc(Nc2ccnc(NCc3ccc(NC(=O)OC(C)(C)C)cc3)n2)[nH]n1 [21i, methyl 5-((2-((4-((tert-butoxycarbonyl)amino)benzyl)amino)pyrimidin-4-yl)amino)-1H-pyrazole-3-carboxylate] | 2.2 | 1.0 | 2.8 | -0.6 | 1.2 | 0.2 | 0.4 | 1.3 | 0.2 | 0.0 | 0.7
CN[C@@H]1C[C@H]2O[C@@](C)([C@@H]1OC)n1c3ccccc3c3c4c(c5c6ccccc6n2c5c31)C(=O)NC4 [staurosporine, reference compound] | 14.9 | 7.5 | 19.1 | 12.4 | 16.6 | – | – | – | – | – | –

Source: article PMC9736855, “Discovery of 3-Amino-1H-pyrazole-Based Kinase Inhibitors to Illuminate the Understudied PCTAIRE Family” (International Journal of Molecular Sciences, 2022)
